This is an account of results in PubChem BioAssay AID1918956 (Molecular Pharmacology Branch, DTP, NCI, 2023).

Several values for one entry are separate records, joined by “and”; a condition that tells them apart may be missing. Equal entries are not always repeated. Where only a bound is given, the exact number is not on record here.

This experiment deals with OVCAR-5 complex spheroids, viability. Description: Anticancer human tumor OVCAR-5 cell line growth inhibition.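 As to all read-outs here: spheroids exposed to agents for seven days.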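 As to viability, T/C: 100% = DMSO vehicle control wells viability.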 The conditions noted are these: for viability, T/C: stronger effect = lower value. In outline:
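Complex spheroids of tumor cells with HUVEC and human MSCs, exposed to iadademstat combined with other agents. Each agent tested in half-log steps from near clinical Cmax (else 10 microM top), DMSO ≤0.25%.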

As for `Nc1ccccc1NC(=O)c1ccc(CNC(=O)OCc2cccnc2)cc1` + NC1CCC(NC2CC2c2ccccc2)CC1, the IC50 runs as follows: (curve of first compound, second compound 0.1 µM) 246 nM; (curve of first compound, second compound 0.316 µM) 258 nM; (curve of first compound, second compound 1 µM) 292 nM; (curve of first compound, second compound 3.16 µM) 252 nM; (curve of first compound, second compound 10 µM) 170 nM. The viability, T/C is, setting by setting: (second compound 0.1 µM, first compound 0.00949 µM) 97.2%; (second compound 0.1 µM, first compound 0.03 µM) 88.6%; (second compound 0.1 µM, first compound 0.0949 µM) 69%; (second compound 0.1 µM, first compound 0.3 µM) 46.3%; (second compound 0.1 µM, first compound 0.949 µM) 23.8%; (second compound 0.1 µM, first compound 3 µM) 9.78%. Further, the viability, T/C by setting is: (second compound 0.316 µM, first compound 0.00949 µM) 109%; (second compound 0.316 µM, first compound 0.03 µM) 90.8%; (second compound 0.316 µM, first compound 0.0949 µM) 74.4%; (second compound 0.316 µM, first compound 0.3 µM) 45.5%; (second compound 0.316 µM, first compound 0.949 µM) 25%; (second compound 0.316 µM, first compound 3 µM) 10.4%. The viability, T/C by setting is: (second compound 1 µM, first compound 0.00949 µM) 101%; (second compound 1 µM, first compound 0.03 µM) 97%; (second compound 1 µM, first compound 0.0949 µM) 75.6%; (second compound 1 µM, first compound 0.3 µM) 48%; (second compound 1 µM, first compound 0.949 µM) 27.3%; (second compound 1 µM, first compound 3 µM) 10.3%. The viability, T/C is 98.9% (second compound 3.16 µM, first compound 0.00949 µM); 78.5% (second compound 3.16 µM, first compound 0.03 µM); 69.7% (second compound 3.16 µM, first compound 0.0949 µM); 47% (second compound 3.16 µM, first compound 0.3 µM); 26.5% (second compound 3.16 µM, first compound 0.949 µM); 10.8% (second compound 3.16 µM, first compound 3 µM). Besides, the viability, T/C (second compound 10 µM, first compound 0.00949 µM) was 86.2%; the viability, T/C (second compound 10 µM, first compound 0.03 µM) is 71.6%; the viability, T/C (second compound 10 µM, first compound 0.0949 µM) was 57.2%; the viability, T/C (second compound 10 µM, first compound 0.3 µM) was 42.4%; the viability, T/C (second compound 10 µM, first compound 0.949 µM) was 28.6%; the viability, T/C (second compound 10 µM, first compound 3 µM) was 9.2%.

With `Nc1ccn(C2OC(CO)C(O)C2(F)F)c(=O)n1` (configuration not stated), the viability, T/C (compound 0.000949 µM) was 27.5% and 26.9%; the viability, T/C (compound 0.003 µM) is 29.6% and 29.3%; the viability, T/C (compound 0.00949 µM) was 29.2% and 28.1%; the viability, T/C (compound 0.03 µM) was 28.8% and 29.1%; the viability, T/C (compound 0.0949 µM) was 30.1% and 28.8%; the viability, T/C (compound 0.3 µM) is 29.1% and 28.3%. Also, the IC50 (curve of compound) is under 0.949 nM.
